Reference: patent US20160220710A1, “COMPOSITIONS AND METHODS FOR DELIVERING PHARMACEUTICAL AGENTS” (THE REGENTS OF THE UNIVERSITY OF MICHIGAN, priority 2015, published 2016)

Assays:
[1] = tested on: LPS-induced acute lung injury; test: LPS-induced acute lung injury; type: in vivo, mice
Description: Since C57BL/6 mice are relatively resistant towards a single dose of intratracheal (IT) LPS instillation (Matute-Bello G et al., 2008 Am J Physiol Lung Cell Mol Physiol 295(3):L379-99), two IT injections of LPS (16 mg/kg; 50 μl) were administered, one on day 0 and the second on day 3. Briefly, 8 wk CFZ-treated and control mice were anesthetized using intraperitoneal injections of xylazine […]. Under direct visualization of the vocal cords using an otoscope, either LPS or an equivalent volume of PBS in a 1 mL syringe attached to an oral gavage needle (22 G) was instilled into the lungs via the oral route. The mouse was then placed in a temperature-controlled cage (37° C.) for recovery from anesthesia.
The general health status of each PBS/LPS-instilled mice was monitored by measuring body weight and rectal temperature (Microprobe Thermometer, Physitemp Instruments, Clifton, N.J.), and cardiopulmonary function (arterial oxygen saturation, respiratory rate, heart rate and pulse distention) was monitored using MouseOx with a collar clip sensor (Starr Life Sciences Corp, Oakmont, Pa.) as previously described (Lax S et al., (2014) BMJ open Respir Res 1(1):e000014; Nayak S, et al. (2014) PLoS One 9(6):e98336). In brief, one day before IT instillations (D-1) the hair around the neck of each mouse was removed using Nair (Church & Dwight, Princeton, N.J.) to enable data acquisition using the collar clip sensor. The next day (D 0), immediately prior to the first LPS/PBS dose, and every 24 h afterwards until day 6 (D 6), the body weight, temperature and MouseOx readings were recorded. MouseOx data was acquired by very brief anesthesia of the mouse using 5% isoflurane to facilitate the placement of the collar clip sensor. The mouse was then placed in an enclosed chamber with ambient light and allowed to acclimatize for 5 min at which point the animals had recovered normal activities and physiological readings. Arterial oxygen saturation, breath rate, heart rate and pulse distention measurements were then simultaneously recorded for 6 min (15 readings/sec), and any errors caused by motion during recording were excluded, after which the mean value of each parameter was used for further data analysis.
To objectively assess LPS-induced mortality, a multi-parametric scoring system that relied on the daily changes in vital signs associated with inflammatory injury progression and mortality which included arterial oxygen saturation was used (Lax et al., 2014, supra), body weight and temperature (Toth L A (2000) ILAR J 41(2):72-79; Nemzek et al., (2004) Humane endpoints in shock research. Shock 21(1):17-25). First, the percent change from baseline (D 0) in arterial oxygen saturation, body weight, and temperature in each mouse caused by IT instillation of PBS/LPS were measured and calculated daily until day 6 post-instillation. […] These mice were immediately euthanized with ketamine/xylazine and the bronchoalveolar lavage (BAL) and lungs were harvested for cellular and biochemical analysis (see below).
PBS/LPS-instilled CFZ- or control mice were euthanized by exsanguination while deeply anesthetized with an intraperitoneal injection of ketamine/xylazine. The trachea was surgically exposed and cannulated with an 18 G needle and the lungs were lavaged by instilling 1 ml DPBS (Life Technologies) containing 0.5 mM EDTA (Sigma). The retrieved BAL was then centrifuged (10 min at 400×g, 4° C.), and the supernatant was frozen (−80° C.), while the cell pellets were resuspended in 1 ml RPMI 1640 media (Life Technologies). To count total cells, the cells were stained with Trypan blue and counted using a hemocytometer. To distinguish cell types, an aliquot of the cells were dried on glass slides and stained with Diff Stain kit (IMEB Inc, San Marcos, Calif.) according to the manufacturer's instructions. […]

RAW 264.7 cells = test: MitoTracker Red live cell staining (mitochondrial membrane potential); type: cell-based, murine; conditions: 10 μM
Description: Cells were cultured with CFZ or CLDI media for 24 h in chamber slides (Lab Tek) and stained with 150 nM of MitoTracker Red CMXRos (MTR, Life Technologies) in fresh media for 45 min, and then NucBlue Live Cell Stain (Life Technologies) was applied for 10 min for nuclear staining. After incubation, extracellular MTR and NucBlue were washed twice with DPBS and the cells were visualized on a Nikon Eclipse Ti fluorescence microscope (Japan) using Texas Red (Mitotracker) and DAPI (NucBlue) filters. Real-time live cell images were captured every 10 sec for 30 min with the same microscope and video was created using the Nikon Elements software. For confocal imaging of intracellular CLDIs, FM 1-43 (Life Technologies) was used at 3.5 μM (15 min at 37° C.) for membrane staining followed by NucBlue (10 min). After washing with DPBS, cells were visualized using laser-scanning confocal microscopy (Olympus Fluoview 500) fitted with argon (FITC) and HeNe Red lasers (Cy5). Images were taken along the z-axis with a 60× objective at 0.25 μm intervals and the composite Z-stack images were created using the Nikon Elements software.

IL-1RA, TNFα, IL-1β = test: Serum cytokines of CFZ-treated mice; type: in vivo
Description: Clofazimine (CFZ, Sigma-Aldrich, C8895) was prepared in sesame oil (Shirakiku, Japan, or Roland, China) and Powdered Lab Diet 5001 (PMI International, Inc., St. Louis, Mo.) and orally administrated to Wild-type (WT) C57BL/6 mice or IL-1RA^−/− (4-5 week old, Jackson Laboratory, Bar Harbor, Me.) for up to 8 weeks ad libitum as previously described (Baik et al., 2013, supra; Baik et al., 2011, supra). Control mice were fed with the same diet without CFZ. The animal protocol was approved by the University of Michigan's Animal Care and Use Committee in accordance with the National Institutes of Health guidelines (UCUCA #PRO0005111).
Mouse Bronchoalveolar Lavage (BAL) Harvest and Isolation of Alveolar Macrophages, Immunohistochemistry and Imaging, SDS-PAGE and Western Blot, Cytokine Measurements

[2] = mice; cited from earlier work

CC(C)/N=c1\cc2n(-c3ccc(Cl)cc3)c3ccccc3nc-2cc1Nc1ccc(Cl)cc1 [CFZ, 3-(p-chloroanilino)-10-(p-chlorophenyl)-2, 10-dihydro-2-isopropyliminophenazine]
survival rate ([1]; 8 wk CFZ-treated, two IT LPS 16 mg/kg): 92%
TNFα and IL-1RA expression ([1]; after LPS): reduced TNFα and IL-1RA expression after LPS
arterial oxygen levels vs control mice ([1]; after LPS): significantly higher arterial oxygen levels at day 5 and day 6
cell count in bronchioalveolar lavage (BAL) ([1]; after LPS): significantly less cell count in bronchioalveolar lavage
number of mice losing more than 15% weight ([1]; after LPS): 1
lung injury vs control mice ([1]; after LPS instillation): notably less lung injury
body temperature drop vs control mice ([1]; after second LPS injection (day 4)): more resistant to temperature drop after the second injection
heart rate, breathing rate and pulse distention vs control mice ([1]; after the second LPS injection): less reduction in heart rate, breathing rate and pulse distention
mitochondrial membrane potential (Mitotracker Red staining) (RAW 264.7 cells): diffuse cytoplasmic MTR staining, indicative of mitochondrial membrane depolarization
nuclear MTR signal vs untreated cells (RAW 264.7 cells): 4 fold
serum IL-1RA levels (IL-1RA, TNFα, IL-1β; 8 weeks): increase in serum IL-1RA levels
TNFα or IL-1β in the serum (IL-1RA, TNFα, IL-1β; all conditions): not possible to detect
pharmacokinetic half-life t1/2 [2]: ~170 h
